Source: patent US11149277B2, “Method of producing enriched exosomes” (National Health Research Institutes, priority 2016, dated 2021)

Tests used:
NAMECs [1] = assay: Resistance of NAMECs to 0.05% trypsin (MET); format: cell-based, human; conditions: 4 days treatment
Procedure: FIG. 3 includes a set of images and two graphs. (A) is a set of bright-field images of NAMECs treated with vehicle, GW627368X, Dynasore (1 μM), or GW627368X plus Dynasore (0.5, 1, 1.5 μM) for 4 days. Scale bar, 100 μm. (B) is a graph showing the percentage of NAMECs treated with vehicle, GW627368X, Dynasore (1 μM), or GW627368X plus Dynasore (0.75 and 1 μM) that were resistant to 0.05% trypsin. Data are means±SEM, (n=3). ***P≤0.001. (C) is a graph showing Boyden chamber migration of NAMECs treated with vehicle (Crl), GW627368X, Dynasore (1 μM), or GW627368X plus Dynasore (0.5, 0.75, 1 μM) for 4 days. Data are means±SEM (n=3). **P≤0.005. ***P≤0.001.

neural stem cells (NSCs) = assay: EV/exosome markers and SOX2 in neural stem cells; format: cell-based; conditions: GW for 4 days
From the text: FIG. 10 includes blots and a graph. (A) is a graph showing vesicle number analysis of GW-treated mesenchymal stem cells (MSCs) P4 fractions. The CM-P4 GW-treated MSCs were collected and subjected to NanoSight Nanoparticle Tracking Analysis (NTA). Quantification of EV/exosome release is shown as the ratio of [vesicle number]/[cell number]. Data are means±SEM (n=3). ***P≤0.001. (B) is a set of blots showing the protein contents measured in the EV/exosome fraction released by MSCs treated with vehicle DMSO (MSC) or EP4 antagonists (MSCGW). The culture media (D1-4: conditioned medium from day 1 to day 4; D5-8: conditioned medium from day 5 to day 8) were collected from MSCs treated with vehicle (MSC), or GW (MSCGW) for 8 days. (C) is a set of blots showing the protein contents measured in the EV/exosome fraction released by neural stem cells (NSCs) treated with vehicle DMSO or EP4 antagonists. The culture media were collected from […] treated with DMSO or GW for 4 days. EV/exosome protein released by the same number of NSCs was loaded in the Western blotting.
Isolated neural stem cells (NSCs) were cultured in NSC medium (225 ml low glucose DMEM, 225 ml F12, 50 ml vesicle-depleted Bovine serum) with or without an EP4 antagonist (GW at 20-30 μg/ml) for 4 days. The culture medium was supplied with 10-15 μg/ml of GW on the third day of the cultural period. […]

NAMECs [2] = assay: Western blot of exosome markers and proteins in CM-P4 fractions of NAMECs; format: cell-based, human
From the text: FIG. 2 includes graphs and blots showing analyses of GW-treated NAMEC P4 fractions. CM-P4 GW-treated NAMECs were collected and subjected to (A) NanoSight Nanoparticle Tracking Analysis (NTA) and (B) Dynamic Light Scattering/Zeta Potential Analysis (DLS). […] D: particle diameter. RN: relative number. (C) is a blot showing the amounts of the CD44 stem cell marker and the CD81, CD9, TSG101, Alix, HSP70 and GAPDH exosome markers measured in the indicated CM-P4 fractions and cell lysates. The culture media and cell lysates were collected from the same number of NAMECs treated with vehicle (Crl), GW627368X (GW) or PGE2 (1 μM) for 4 days. (D) is a blot showing the amounts of the GAPDH and CD81 exosome markers and the CD44 stem cell marker measured in the CM-P4 fraction of NAMECs (CD44hi/CD24− stem cells) or CD44lo/CD24+ non-stem cells (HMLE cells) treated with vehicle (Crl) or GW for 2 days. 1×: P4 exosome fraction released by 1×10^6 cells; 2×: P4 exosome fraction released by 2×10^6 cells. […] (E) is a blot showing that the CD44 stem cell marker and GAPDH and CD81 exosome markers were measured in the indicated P4 conditioned medium fractions of NAMECs treated with vehicle (Crl), GW627368X (GW, 1 μg/ml), AH23848 (EP4 antagonist; 0.4, 2, 4 μg/ml), or AH6809 (EP1/2/3 antagonist; 0.8, 4, 8 μg/ml). (F) is a blot showing the HSP70, GAPDH and CD81 exosome markers measured in the indicated CM-P4 of NAMECs, NAMEC-shEP4-1 cells, and NAMEC-shEP4-2 cells treated with vehicle or with doxycycline (Dox, 2 μg/ml) (top panel). Doxyclycline (Dox) induced the production EP4 shRNA in NAMEC-shEP4 cells (bottom panel).
The P4 exosome fractions and cell lysates were collected from NAMECs treated with vehicle (Crl), GW627368X (GW), or PGE2 for 4 days. 1×: P4 exosome fraction released by 2.5×10^5 cells; 5×: P4 exosome fraction released by 12.5×10^5 cells. Hg: Hg-integrin β1, Lg: Lg-integrin β1, H: H-integrin α6, L: L-integrin α6, pg: pg-LRP6, g: g-LRP6, Ng: Ng-LRP6.
The isolated human mammary epithelial stem cells (NAMECs) were cultured in mammary epithelial cell basal medium (250 ml MCDB-170, 250 ml DMEM-F12, 1.2 g sodium bicarbonate, 2.5 μg EGF, 0.25 mg Hydrocortisone, 2.5 mg insulin, 35 mg BPE) with or without containing EP4 antagonist, i.e., GW627368X (GW) at 1 μg/ml, or AH23848 (AH) at 4 μg/ml, for 4 days. The culture medium was supplied with 0.5 μg/ml of GW or 2 μg/ml of AH23848 at the third day of the culturing period. For the induction of EP4 antagonist-induced exosomes from mouse mammary epithelial cells, cells were cultured in a medium containing 10 μg/ml of GW for 4 days.
The culture media were centrifuged at 300 g for 5 min to remove cells (P1), at 2,000 g for 20 min (P2), then at 10,000 g for 30 min (P3) all at 4° C. Dead cells and cell debris were removed at 300 g (P1) and 1200 g (P2). […]

SMILES: CCOc1c2c(c(OCC)c3ccccc13)C(=O)N(c1ccc(CC(=O)NS(=O)(=O)c3ccccc3)cc1)C2 [GW627368X]
- resistance to disassociation by 0.05% trypsin (NAMECs [1]): more resistant
- content of exosomal markers CD81 and GAPDH in NSC culture (neural stem cells (NSCs)): increased
- expression level of NSC marker SOX2 vs non-treated NSCs (neural stem cells (NSCs)): much lower
- amount of total exosomal proteins released vs vehicle or PGE2 (NAMECs [2]; 4 days treatment): much greater
- exosome release by exosome markers in CM-P4 fractions (NAMECs [2]; AH23848 0.4, 2, 4 μg/ml, AH6809 0.8, 4, 8 μg/ml, GW 1 μg/ml): Large amounts
